“And” between values parts separate entries of the source, which are not always exact repeats. Identical values can stand only once. One block for each molecule: values may come before it.
Columns and labels:
[1] = biological target: T1, p-IRE1α dimerization (Homo sapiens, UniProt O75460); experiment: SDS-PAGE gel-based crosslinking assay
T1 construct: Human IRE1α kinase and RNase domain (residues 547–977) was subcloned into pLIB plasmid; His tag (with TEV cleavage site) (N, cleaved yes); made in house; host or cells: Sf9 insect cells, baculovirus (Bac-to-Bac)
T1 sequence (O75460 547-977): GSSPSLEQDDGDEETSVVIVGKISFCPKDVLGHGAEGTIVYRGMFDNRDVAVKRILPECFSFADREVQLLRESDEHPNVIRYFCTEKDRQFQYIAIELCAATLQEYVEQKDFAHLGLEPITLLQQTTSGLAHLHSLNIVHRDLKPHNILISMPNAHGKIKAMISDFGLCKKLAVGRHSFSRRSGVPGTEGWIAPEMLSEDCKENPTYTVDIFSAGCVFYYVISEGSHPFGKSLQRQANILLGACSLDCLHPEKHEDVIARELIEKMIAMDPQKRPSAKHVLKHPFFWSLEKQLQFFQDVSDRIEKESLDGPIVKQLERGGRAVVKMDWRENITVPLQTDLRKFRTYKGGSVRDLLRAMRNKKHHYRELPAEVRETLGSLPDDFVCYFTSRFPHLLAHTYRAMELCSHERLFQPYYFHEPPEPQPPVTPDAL
Source text: sustained inhibition effect.”
Fig. R1. (A) Gel-based cleavage assay using the same condition as FRET assay. (B) Fig.4g of current manuscript, IA107 binding affinity towards p-IRE1α in MST assay.
-Using Refeyn mass photometry of cross-linked IRE1α complexes, the authors observe that […]
However, this finding appears inconsistent with their crystallographic data showing separated RNase domains in dimeric IRE1. Since both kinase and RNase domain interactions contribute to the IRE1 dimer interface, one would expect at least some reduction in dimerization levels. It is also a bit worrying that the authors observe that one of the control compounds tested (G1749) also blocks dimerization/oligomerization in their assay (Extended Data Fig. 6d and 6e), as this compound was found not to affect the monomer/dimer equilibrium of IRE1 in PMID: 33318494.
We appreciate the Reviewer’s comments regarding the dimerization experiments. Our crystal […]
remain in the same dimer interaction interface as the apo p-IRE1α dimer. […]
observe dimerization inhibition by IA107 in the mass photometry assay nor SDS-PAGE gel-based crosslinking assay (Fig. R2A). […]
Fig. R2. […] Analyzed using the PDBePISA web server (PMID: 17681537). […]
inhibits IRE1α's RNase activity (measured as spliced XBP1 levels) in cells through engagement of IRE1α. […]

[2] = test system: IRE1α; conditions: Fig. 1b; read-out: IC50 of reported IRE1α inhibitor; cited from earlier work
[3] = test system: HCT 116 cells; experiment: Cell viability assay (CCK-8), HCT 116; type: cell-based, human; conditions: HCT 116; for inhibition at 50 µM: Homo sapiens, read-out: antiproliferation, inhibition at highest tested concentration
Protocol: (§1) Cells were collected and seeded into 96-well plates at a density of 2000–4000 cells per well and cultured overnight to allow cells to adhere. After adherence, cells were treated with the indicated compounds for 72 h. Then 20 μL CCK-8 solution (Vazyme, A311) was added into each well and incubated at 37 °C for 2–4 h. Absorbance was detected at a wavelength of 450 nm using a TECAN plate reader. Cell viability was calculated with the equation: Cell viability (%) = 100(Absorbance of treated cell - Absorbance of Blank control)/ (Absorbance of DMSO-treated cells - Absorbance of Blank control); Blank control: medium and CCK-8 solution, no cells.

[4] = test system: HT-29 cells; experiment: Cell viability assay (CCK-8), HT-29; type: cell-based, human; conditions: HT-29; for inhibition at 50 µM: Homo sapiens, read-out: antiproliferation, inhibition at highest tested concentration
Protocol: as §1

[5] = test system: XBP1 mRNA splicing in A549 cells; experiment: RT-qPCR of ER stress-induced XBP1 mRNA splicing, A549; type: cell-based, human; conditions: for Relative XBP1s/Actin: Fig. 7a, 0.5μg/mL Tm, individual replicates
Protocol: A549 cells, HCT 116 cells, and HT-29 cells were collected and seeded in 6-well plates at a density of 5 × 10^5 cells per well and cultured overnight to attach, then treated with compound or DMSO for 2 h, then 0.5 μg/mL final concentration of tunicamycin (Tm, MP Biomedi, 0215002805) were added to induce the ER stress for 2 h. After treatment, total RNA was purified using an RNeasy mini kit (Qiagen, 74106). 500 ng of total RNA was used for reverse transcription using the High-Capacity cDNA Reverse Transcription Kits (Thermo Fisher, 4368814). cDNA was diluted 1: 5 using RNase-free water, and 1 μL CDNA was used for each qPCR reaction. The qPCR was performed using PowerUp™ SYBR™ Green Master Mix (Thermo Fisher, A25742) with 10 µL reaction volume using Bio-Rad CFX96 Real-Time PCR Detection System following the standard cycling mode (primer Tm ≥ 60 °C) on the manufacturer’s protocol. Data was analyzed using the 2^- ΔΔCt method. The primers used are listed in Supplementary Table S3. The inhibition % was calculated by using the equation: inhibition% = 100× (normalized Tm control - normalized of the sample)/(normalized Tm control - normalized DMSO control). Tm control: Cells treated with tunicamycin; DMSO control: Cells treated with DMSO only.

[6] = test system: A549 cells; experiment: Cell viability assay (CCK-8), A549; type: cell-based, human; conditions: A549; for inhibition at 50 µM: Homo sapiens, read-out: antiproliferation, inhibition at highest tested concentration
Protocol: as §1

[7] = biological target: LIMK1 (Homo sapiens, UniProt P53667); experiment: Kinase profiling (SelectScreen), LanthaScreen Binding; conditions: IA107 at 5 μM
Sequence of LIMK1 (P53667 whole entry): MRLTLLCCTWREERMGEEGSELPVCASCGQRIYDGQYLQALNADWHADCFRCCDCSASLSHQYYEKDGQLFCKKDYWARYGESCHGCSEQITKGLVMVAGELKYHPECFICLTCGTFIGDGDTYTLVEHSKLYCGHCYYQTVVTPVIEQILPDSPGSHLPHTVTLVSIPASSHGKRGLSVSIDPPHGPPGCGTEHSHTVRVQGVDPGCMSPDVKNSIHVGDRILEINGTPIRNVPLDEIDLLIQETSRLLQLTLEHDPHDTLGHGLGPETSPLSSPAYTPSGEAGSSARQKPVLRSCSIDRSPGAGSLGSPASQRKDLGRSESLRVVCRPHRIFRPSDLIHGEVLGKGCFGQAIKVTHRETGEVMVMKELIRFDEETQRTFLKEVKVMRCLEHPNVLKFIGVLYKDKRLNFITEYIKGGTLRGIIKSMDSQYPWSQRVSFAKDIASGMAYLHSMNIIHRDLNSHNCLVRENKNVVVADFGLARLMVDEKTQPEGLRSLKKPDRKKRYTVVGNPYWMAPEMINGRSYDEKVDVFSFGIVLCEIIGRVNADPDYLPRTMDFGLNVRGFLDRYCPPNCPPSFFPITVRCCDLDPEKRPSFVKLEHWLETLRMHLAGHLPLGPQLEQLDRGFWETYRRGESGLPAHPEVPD
Protocol: (§2) Kinase profiling was conducted by the SelectScreen Kinase Profiling Services (Thermo Fisher), using Z′-LYTE, Adapta, or LanthaScreen Eu Kinase Binding Assay for different kinases. The kinome phylogenetic tree was generated using the KinMap web portal.

[8] = biological target: ULK2 (Homo sapiens, UniProt Q8IYT8); experiment: as above; conditions: IA107 at 5 μM
Protocol: as §2

[9] = biological target: ACVR1 (ALK2) (Homo sapiens, UniProt Q04771); experiment: as above; conditions: IA107 at 5 μM
Sequence of ACVR1 (ALK2) (Q04771 21-509): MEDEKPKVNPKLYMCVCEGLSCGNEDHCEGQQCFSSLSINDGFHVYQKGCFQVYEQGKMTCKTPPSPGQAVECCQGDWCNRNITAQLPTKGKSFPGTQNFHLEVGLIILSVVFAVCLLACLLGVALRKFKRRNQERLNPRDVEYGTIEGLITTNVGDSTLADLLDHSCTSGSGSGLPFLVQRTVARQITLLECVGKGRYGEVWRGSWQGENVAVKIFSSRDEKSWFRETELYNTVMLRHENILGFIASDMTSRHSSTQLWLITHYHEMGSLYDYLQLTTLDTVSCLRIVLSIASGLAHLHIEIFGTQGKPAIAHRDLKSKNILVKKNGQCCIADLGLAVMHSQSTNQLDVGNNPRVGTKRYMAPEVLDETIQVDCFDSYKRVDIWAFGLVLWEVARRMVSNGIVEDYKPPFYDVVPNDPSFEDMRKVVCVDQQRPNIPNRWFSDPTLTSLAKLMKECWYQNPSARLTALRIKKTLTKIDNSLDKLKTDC
Protocol: as §2

[10] = biological target: RIPK2 (Homo sapiens, UniProt O43353); experiment: as above; conditions: IA107 at 5 μM
Sequence of RIPK2 (O43353 whole entry): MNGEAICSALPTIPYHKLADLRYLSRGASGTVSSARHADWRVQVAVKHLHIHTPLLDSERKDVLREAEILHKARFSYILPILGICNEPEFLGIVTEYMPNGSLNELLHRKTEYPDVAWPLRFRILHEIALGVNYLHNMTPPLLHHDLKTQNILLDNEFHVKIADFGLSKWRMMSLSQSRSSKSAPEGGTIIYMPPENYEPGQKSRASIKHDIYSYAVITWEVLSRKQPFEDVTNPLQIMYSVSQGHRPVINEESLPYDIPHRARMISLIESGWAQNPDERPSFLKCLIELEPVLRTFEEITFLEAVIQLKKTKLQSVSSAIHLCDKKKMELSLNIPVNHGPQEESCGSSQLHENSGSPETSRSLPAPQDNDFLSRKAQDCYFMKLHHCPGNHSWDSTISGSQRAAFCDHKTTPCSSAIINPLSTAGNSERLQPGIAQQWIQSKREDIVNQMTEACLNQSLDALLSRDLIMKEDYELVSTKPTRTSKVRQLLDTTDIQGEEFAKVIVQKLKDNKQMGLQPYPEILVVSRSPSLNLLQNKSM
Protocol: as §2

[11] = biological target: TGFBR1 (ALK5) (Homo sapiens, UniProt P36897); experiment: as above; conditions: IA107 at 5 μM
Protocol: as §2

[12] = biological target: TLK1 (Homo sapiens, UniProt Q9UKI8); experiment: as above; conditions: IA107 at 5 μM
Sequence of TLK1 (Q9UKI8 whole entry): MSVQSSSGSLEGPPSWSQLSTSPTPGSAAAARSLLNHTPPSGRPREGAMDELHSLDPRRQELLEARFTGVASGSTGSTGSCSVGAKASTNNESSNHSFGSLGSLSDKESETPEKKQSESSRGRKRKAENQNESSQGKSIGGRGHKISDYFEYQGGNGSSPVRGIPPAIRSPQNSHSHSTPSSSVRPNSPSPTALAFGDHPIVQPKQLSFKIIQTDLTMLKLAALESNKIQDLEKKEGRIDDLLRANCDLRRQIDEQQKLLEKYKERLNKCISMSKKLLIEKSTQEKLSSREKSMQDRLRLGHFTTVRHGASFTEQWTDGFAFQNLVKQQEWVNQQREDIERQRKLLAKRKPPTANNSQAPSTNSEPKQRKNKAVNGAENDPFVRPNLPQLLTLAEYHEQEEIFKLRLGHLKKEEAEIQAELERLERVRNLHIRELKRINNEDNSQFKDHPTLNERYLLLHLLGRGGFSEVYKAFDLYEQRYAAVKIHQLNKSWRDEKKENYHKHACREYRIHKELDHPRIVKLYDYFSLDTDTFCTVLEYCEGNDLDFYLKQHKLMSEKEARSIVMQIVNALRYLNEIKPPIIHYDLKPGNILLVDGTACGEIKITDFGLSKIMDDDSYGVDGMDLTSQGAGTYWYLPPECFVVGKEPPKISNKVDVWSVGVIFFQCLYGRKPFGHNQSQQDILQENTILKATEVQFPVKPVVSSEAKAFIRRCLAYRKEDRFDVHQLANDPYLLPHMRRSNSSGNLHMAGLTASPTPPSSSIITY
Protocol: as §2

[13] = biological target: CDK8/cyclin C (Homo sapiens, UniProt P49336); experiment: as above; conditions: IA107 at 5 μM
Sequence of CDK8/cyclin C (P49336 whole entry): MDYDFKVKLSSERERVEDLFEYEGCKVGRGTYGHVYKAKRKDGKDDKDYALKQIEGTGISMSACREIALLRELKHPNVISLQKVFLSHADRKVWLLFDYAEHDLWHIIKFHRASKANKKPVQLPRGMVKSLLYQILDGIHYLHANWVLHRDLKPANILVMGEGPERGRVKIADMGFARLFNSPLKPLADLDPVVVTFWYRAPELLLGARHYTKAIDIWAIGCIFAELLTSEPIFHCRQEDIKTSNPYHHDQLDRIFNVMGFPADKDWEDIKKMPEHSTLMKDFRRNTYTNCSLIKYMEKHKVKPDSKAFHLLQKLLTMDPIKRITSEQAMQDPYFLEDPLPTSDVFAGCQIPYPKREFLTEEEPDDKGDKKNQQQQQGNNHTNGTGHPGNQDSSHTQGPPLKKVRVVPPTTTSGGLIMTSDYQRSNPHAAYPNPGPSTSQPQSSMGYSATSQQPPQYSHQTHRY
Sequence of CDK8/cyclin C (P24863 whole entry partner): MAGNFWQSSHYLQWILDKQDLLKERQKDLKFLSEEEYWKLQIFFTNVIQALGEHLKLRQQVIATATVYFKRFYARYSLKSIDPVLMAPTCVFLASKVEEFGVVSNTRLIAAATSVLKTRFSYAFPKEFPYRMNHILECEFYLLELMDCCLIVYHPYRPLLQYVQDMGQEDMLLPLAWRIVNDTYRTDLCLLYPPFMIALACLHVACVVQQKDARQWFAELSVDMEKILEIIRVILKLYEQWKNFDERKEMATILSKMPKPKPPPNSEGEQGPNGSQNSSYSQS
Protocol: as §2

[14] = biological target: MAP3K14 (NIK) (Homo sapiens, UniProt Q99558); experiment: as above; conditions: IA107 at 5 μM
Protocol: as §2

[15] = biological target: TNIK (Homo sapiens, UniProt Q9UKE5); experiment: as above; conditions: IA107 at 5 μM
Sequence of TNIK (Q9UKE5 whole entry): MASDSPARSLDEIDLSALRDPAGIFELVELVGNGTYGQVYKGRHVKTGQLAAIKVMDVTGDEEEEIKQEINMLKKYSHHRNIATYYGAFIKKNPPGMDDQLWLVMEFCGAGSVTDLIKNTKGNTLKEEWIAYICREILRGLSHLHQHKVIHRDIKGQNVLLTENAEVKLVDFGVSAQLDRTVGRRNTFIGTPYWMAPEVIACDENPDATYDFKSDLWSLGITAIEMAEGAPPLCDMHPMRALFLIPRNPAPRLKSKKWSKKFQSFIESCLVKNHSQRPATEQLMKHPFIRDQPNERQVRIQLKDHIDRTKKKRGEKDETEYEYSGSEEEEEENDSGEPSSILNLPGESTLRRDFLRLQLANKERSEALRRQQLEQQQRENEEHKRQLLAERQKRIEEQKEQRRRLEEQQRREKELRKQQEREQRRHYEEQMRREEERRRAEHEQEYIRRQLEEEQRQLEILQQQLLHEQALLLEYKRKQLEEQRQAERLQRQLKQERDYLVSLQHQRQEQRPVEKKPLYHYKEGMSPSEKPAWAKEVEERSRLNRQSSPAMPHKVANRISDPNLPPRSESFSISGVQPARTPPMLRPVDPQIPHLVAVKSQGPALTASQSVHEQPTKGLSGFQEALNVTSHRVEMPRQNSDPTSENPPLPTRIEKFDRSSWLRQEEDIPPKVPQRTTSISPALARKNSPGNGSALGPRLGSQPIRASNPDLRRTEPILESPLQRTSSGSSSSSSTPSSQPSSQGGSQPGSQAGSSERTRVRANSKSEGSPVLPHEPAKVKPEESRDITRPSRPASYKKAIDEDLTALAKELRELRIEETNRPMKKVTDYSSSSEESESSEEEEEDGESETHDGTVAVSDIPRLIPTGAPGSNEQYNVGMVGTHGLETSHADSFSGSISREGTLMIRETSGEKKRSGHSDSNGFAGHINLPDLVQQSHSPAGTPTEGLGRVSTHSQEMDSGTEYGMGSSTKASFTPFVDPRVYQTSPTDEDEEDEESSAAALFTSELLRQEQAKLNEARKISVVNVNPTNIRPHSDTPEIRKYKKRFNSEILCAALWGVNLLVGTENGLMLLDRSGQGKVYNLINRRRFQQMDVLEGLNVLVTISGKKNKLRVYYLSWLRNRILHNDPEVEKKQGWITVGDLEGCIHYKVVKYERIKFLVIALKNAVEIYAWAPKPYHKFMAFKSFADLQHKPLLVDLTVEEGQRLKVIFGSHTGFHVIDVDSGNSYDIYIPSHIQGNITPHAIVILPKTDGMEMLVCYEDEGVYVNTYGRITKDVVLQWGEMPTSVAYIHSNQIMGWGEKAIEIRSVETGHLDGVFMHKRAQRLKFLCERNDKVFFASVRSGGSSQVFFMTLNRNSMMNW
Protocol: as §2

- effect on p-IRE1α dimerization [1]: inhibited dimerization
Structure (SMILES): Cc1ccc2c(NS(=O)(=O)c3ccccc3Cl)cccc2c1Oc1ncccc1-c1ccnc(N[C@H]2CCCNC2)n1 [KIRA8]
- IC50 [2]: 6 nM

- IC50 ([5]; Homo sapiens, A549 cells, tunicamycin, read-out: cellular IC50, ER stress-induced XBP1 mRNA splicing): 180 nM
Structure (SMILES): CCOC(=O)CCc1c(C)n(C(=O)c2ccccc2)c2ccc(Br)cc12 [IAPD1]
- cytotoxicity [3]: did not show cytotoxicity
- inhibition at 50 µM [3]: < 30%
- cytotoxicity [4]: did not show cytotoxicity
- inhibition at 50 µM [4]: < 30%
- improvement of the cellular activity in inhibiting XBP1 mRNA splicing ([5]; prodrug versus IA107): 50 fold
- cytotoxicity [6]: did not show cytotoxicity
- inhibition at 50 µM [6]: < 30%

Structure (SMILES): Cc1c(CCC(=O)O)c2cc(Br)ccc2n1C(=O)c1ccccc1 [IA107]
- cytotoxicity [3]: did not show cytotoxicity
- inhibition at 50 µM [3]: < 30%
- effect on p-IRE1α dimerization [1]: did not
- inhibition at 5 µM [7]: -16%
- inhibition at 5 µM [8]: -3%
- inhibition at 5 µM [9]: 2%
- inhibition at 5 µM [10]: 0%
- inhibition at 5 µM [11]: 54%
- inhibition at 5 µM [12]: -12%
- inhibition at 5 µM [13]: 35%
- inhibition at 5 µM [14]: 0%
- inhibition at 5 µM [15]: 8%
- cytotoxicity [4]: did not show cytotoxicity
- inhibition at 50 µM [4]: < 30%
- inhibition of ER stress-induced XBP1 mRNA splicing ([5]; A549 cells, 2 h pre-treatment, 2 h tunicamycin): concentration-dependently inhibited
- Relative XBP1s/Actin ([5]; 5 μM): 3.514 and 3.6054 and 3.452 and 3.1438
- Relative XBP1s/Actin ([5]; 10 μM): 3.066 and 2.696 and 2.897 and 2.792
- Relative XBP1s/Actin ([5]; 25 μM): 2.48 and 2.329 and 2.338 and 2.263
- Relative XBP1s/Actin ([5]; 50 μM): 1.745 and 1.521 and 1.514 and 1.455
- cytotoxicity [6]: did not show cytotoxicity
- inhibition at 50 µM [6]: < 30%
